Results taken from ChEMBL document CHEMBL1127175, “4-hydroxyphenoxymethylene bisphosphonic acid derivatives: potent, non-hydrolysable inhibitors of MYO-inositol monophosphatase” (Bioorg Med Chem Lett, 1993).
pIC50: −log10 of the molar value.

Target: T1, Inositol monophosphatase 1 (Bos taurus, UniProt P20456)
T1 sequence (P20456 whole entry): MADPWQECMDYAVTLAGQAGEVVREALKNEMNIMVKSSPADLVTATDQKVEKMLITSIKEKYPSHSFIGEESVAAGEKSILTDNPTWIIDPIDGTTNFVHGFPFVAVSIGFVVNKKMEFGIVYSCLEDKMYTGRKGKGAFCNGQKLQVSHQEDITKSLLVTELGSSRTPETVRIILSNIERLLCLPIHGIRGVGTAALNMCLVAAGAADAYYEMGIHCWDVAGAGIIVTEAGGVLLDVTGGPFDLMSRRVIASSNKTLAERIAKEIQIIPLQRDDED
Assay: Tested for the inhibitory activity against recombinant bovine brain myo-inositol monophosphatase

Row | pIC50 | Structure (SMILES)
1 | 7.10 | O=C(NCc1cccc(CC(Oc2ccc(O)cc2)(P(=O)(O)O)P(=O)(O)O)c1)c1ccc(Cl)c(Cl)c1
2 | 4.72 | O=P(O)(O)C(Cc1ccccc1)(O[C@@H]1CC[C@@H](O)C[C@@H]1O)P(=O)(O)O
3 | 5.60 | O=P(O)(O)C(CCCCCCc1ccccc1)(O[C@@H]1CC[C@@H](O)C[C@@H]1O)P(=O)(O)O
4 | 4.57 | O=P(O)(O)C(Oc1ccc(O)cc1)P(=O)(O)O
5 | 4.64 | O=P(O)(O)C(O)(Cc1ccc(Cl)c(Cl)c1)P(=O)(O)O
6 | 5.40 | CC(O[C@@H]1CC[C@@H](O)C[C@@H]1O)(P(=O)(O)O)P(=O)(O)O
7 | 4.39 | O=P(O)(O)C(Oc1ccc(O)cc1O)P(=O)(O)O
8 | 5.36 | CC(Oc1ccc(O)cc1O)(P(=O)(O)O)P(=O)(O)O
9 | 6.30 | O=P(O)(O)C(Cc1ccccc1)(Oc1ccc(O)cc1)P(=O)(O)O
10 | 6.48 | CC(Oc1ccc(O)cc1)(P(=O)(O)O)P(=O)(O)O [L-690330]
